Columns and labels:
Septoria tritici [1] = assay: Example F-A: in vivo preventive Septoria tritici test (wheat); details: Zymoseptoria tritici, 504 h, evaluated 21 days after inoculation, read-out: Efficacy in % Example F-A
Method: Example F: In Vivo Septoria tritici Test (Wheat); Comparison of Pyridinyloxy-Pyridyl Compounds According to the Invention Vs. Compounds Known from WO-A 2010/146116 [table] To produce a suitable preparation of active compound, 1 part by weight of active compound or active compound combination is mixed with the stated amounts of solvent and emulsifier, and the concentrate is diluted with water to the desired concentration. Example F-A: In Vivo Preventive Septoria tritici Test (Wheat) To test for preventive activity, young plants are sprayed with the preparation of active compound or active compound combination at the stated rate of application. After the spray coating has been dried, the plants are sprayed with a spore suspension of Septoria tritici. The plants remain for 48 hours in an incubation cabinet at approximately 20° C. and a relative atmospheric humidity of approximately 100% and afterwards for 60 hours at approximately 15° C. in a translucent incubation cabinet at a relative atmospheric humidity of approximately 100%. The plants are placed in the greenhouse at a temperature of approximately 15° C. and a relative atmospheric humidity of approximately 80%. The test is evaluated 21 days after the inoculation. 0% means an efficacy which corresponds to that of the untreated control, while an efficacy of 100% means that no disease is observed.

Septoria tritici [2] = assay: Example F-B: in vivo curative Septoria tritici test (wheat); details: Zymoseptoria tritici, 504 h, sprayed 48 hours after inoculation, evaluated 21 days after inoculation, read-out: Efficacy in % Example F-B
Method: Example F: In Vivo Septoria tritici Test (Wheat); Comparison of Pyridinyloxy-Pyridyl Compounds According to the Invention Vs. Compounds Known from WO-A 2010/146116 [table] To produce a suitable preparation of active compound, 1 part by weight of active compound or active compound combination is mixed with the stated amounts of solvent and emulsifier, and the concentrate is diluted with water to the desired concentration. Example F-B: In Vivo Curative Septoria tritici Test (Wheat) To test for curative activity, young plants are inoculated with a spore suspension of Septoria tritici and remain for 48 hours in an incubation cabinet at a temperature of approximately 20° C. and a relative atmospheric humidity of approximately 100%. 48 hours after the incubation, the plants are sprayed with the preparation of active compound or active compound combination at the stated rate of application. After application the plants remain for 60 hours at a temperature of approximately 15° C. in a translucent incubation cabinet at a relative atmospheric humidity of approximately 100%. Afterwards, the plants are placed in the greenhouse at a temperature of approximately 15° C. and a relative atmospheric humidity of approximately 80%. The test is evaluated 21 days after the inoculation. 0% means an efficacy which corresponds to that of the untreated control, while an efficacy of 100% means that no disease is observed.

Septoria tritici [3] = assay: Example F-C: in vivo 5 days preventive Septoria tritici test (wheat); details: Zymoseptoria tritici, 504 h, inoculated 5 days after spraying, evaluated 21 days after inoculation, read-out: Efficacy in % Example F-C
Method: Example F: In Vivo Septoria tritici Test (Wheat); Comparison of Pyridinyloxy-Pyridyl Compounds According to the Invention Vs. Compounds Known from WO-A 2010/146116 [table] To produce a suitable preparation of active compound, 1 part by weight of active compound or active compound combination is mixed with the stated amounts of solvent and emulsifier, and the concentrate is diluted with water to the desired concentration. Example F-C: In Vivo 5 Days Preventive Septoria tritici Test (Wheat) To test for preventive and long-lasting activity, young plants are sprayed with a preparation of active compound or active compound combination at the stated rate of application. After the spray coating has been dried, the plants are placed in the greenhouse at a temperature of approximately 15° C. and a relative atmospheric humidity of approximately 80%. 5 days later the plants are sprayed with a spore suspension of Septoria tritici. The plants remain for 48 hours in an incubation cabinet at approximately 20° C. and a relative atmospheric humidity of approximately 100% and afterwards for 60 hours at approximately 15° C. in a translucent incubation cabinet at a relative atmospheric humidity of approximately 100%. Then the plants are placed in the greenhouse at a temperature of approximately 15° C. and a relative atmospheric humidity of approximately 80%. The test is evaluated 21 days after the inoculation. 0% means an efficacy which corresponds to that of the untreated control, while an efficacy of 100% means that no disease is observed.

## Clc1ccc(Oc2cc(Cl)c(C3(Cn4cncn4)OCCO3)cn2)cc1 [reference compound]
Septoria tritici [1]
  pest or weed control at 500 ppm: 89%
Septoria tritici [2]
  pest or weed control at 500 ppm: 89%
Septoria tritici [3]
  pest or weed control at 500 ppm: 80%
